In PubChem BioAssay AID1996:
≈ marks a conversion by molar mass, not a printed value. Non-standard residues stand in square brackets, D forms with d. Residues, ends and D or L forms follow the SMILES beside them. ξ: configuration not given here. *: point of attachment. ξN = NC(=O)CC(N)C(=O)O; Boc = CC(C)(C)OC(=O)*

Conditions: buffer; pH 7.4; 200.0 µM

| SMILES | solubility kinetic [µg/mL] |
| --- | --- |
| Cc1ccnc(NC(=O)c2ccc(Cl)cc2Cl)n1 | 31.7 (≈ 112 µM) |
| Cc1ccnc(SCC(=O)NC2CCCCCC2)n1 | 33 (≈ 118 µM) |
| CCOC(=O)Cn1nc(C)c([N+](=O)[O-])c1C | > 34.1 |
| COC(=O)c1cc(OCC(=O)Nc2ccc3c(c2)CCC3)cc(C(=O)OC)c1 | 3 (≈ 7.82 µM) |
| O=C1/C(=C/c2ccsc2)N2CCC1CC2 | 25.9 (≈ 118 µM) |
| CC(=O)Nc1c(NC(C)(C)C)c2ccccc2oc1=O | > 41.1 |
| CC(=O)/C=C/c1ccccc1Oc1c(F)c(F)nc(F)c1F | 17.8 (≈ 57.2 µM) |
| N#C/C(=C\c1cccnc1)C(=O)Nc1ccc(S(N)(=O)=O)cc1 | 36.6 (≈ 111 µM) |
| O=C(Nc1ccccc1C(=O)Nc1ccccn1)c1ccc([N+](=O)[O-])cc1 | 0.6 (≈ 1.66 µM) |
| Cc1sc(NC(=O)c2cccnc2)nc1-c1ccccc1 | 1.1 (≈ 3.72 µM) |
| CC(C)(C)c1ccc(C(=O)/C(C#N)=C/c2cccs2)cc1 | 4.1 (≈ 13.9 µM) |
| COC(=O)c1sccc1NC(=O)Nc1cccc(OC)c1 | > 46 |
| c1cnc2c(c1)ccc1cccnc12 | > 27 |
| Cl.O=C(O)CN1CCCCC1 | 23.8 |
| COc1ccc(NC(=O)N2CCCc3ccccc32)cc1OC | > 46.9 |
| CC(=O)C(CC(=O)N1CCCC1)C(=O)Nc1ccc(Cl)cc1 (centres undefined) | > 48.4 |
| O=C(/C=C/c1ccccc1Cl)Nc1ccccc1 | 0.6 (≈ 2.33 µM) |
| Cn1c(=O)c2[nH]c(SCC(=O)c3ccc(F)cc3)nc2n(C)c1=O | 7.5 (≈ 21.5 µM) |
| Cc1ccccc1CC(=O)N1CCCC1 | 29.7 (≈ 146 µM) |
| COc1cc(CC(=O)N(CC(C)C)C2CCS(=O)(=O)C2)cc(OC)c1OC (centres undefined) | > 59.9 |
| CCOc1ccccc1OC(=O)CN1C(=O)c2ccccc2C1=O | 16.2 (≈ 49.8 µM) |
| Cc1cc(NC(=O)COc2ccccc2C(N)=O)no1 | 19.7 (≈ 71.6 µM) |
| NC(=O)c1cc(S(=O)(=O)Nc2cccc(Cl)c2)cs1 | > 47.5 |
| Cc1ccc(S(=O)(=O)/N=C(/Nc2ccc([N+](=O)[O-])cc2[N+](=O)[O-])c2ccccc2)cc1 | 5.9 (≈ 13.4 µM) |

| SMILES | solubility kinetic [µg/mL] |
| --- | --- |
| COC(=O)CSc1nc(Cc2ccccc2)nc2ccccc12 | 10.7 (≈ 33 µM) |
| COc1ccc(Cl)cc1CN1CCOCC1.Cl | > 41.7 |
| Cc1cc(/C(N)=N/OC(=O)c2ccccc2Cl)no1 | > 42 |
| O=S(=O)(Nc1ccc(C(F)(F)F)cn1)c1ccccc1 | 45.3 (≈ 150 µM) |
| CC1CN(c2nc(Nc3ccccc3)nc(N)c2[N+](=O)[O-])CC(C)O1 (centres undefined) | 48.1 (≈ 140 µM) |
| CSc1ncc(Cl)c(C(=O)Nc2cc(C)ccc2C)n1 | < 0.2 |
| Cc1ccccc1C(=O)NC(=S)N(C)C1CCCCC1 | 41.4 (≈ 143 µM) |
| CCOC(=O)c1c(O)c2ccccc2n(CC)c1=O | > 39.2 |
| CNC(=O)OCCSCCS(=O)(=O)c1ccc(Cl)cc1 | 16.6 (≈ 49.1 µM) |
| Cn1c(C2=C(O)CN(c3ccccc3)C2=N)nc2ccccc21 | 44.5 (≈ 146 µM) |
| COc1cccc(CN(C)C(c2ccccc2)c2ccccc2)c1OC | 1.7 (≈ 4.89 µM) |
| c1ccc(-c2ccc(-c3ccccn3)s2)nc1 | 4.2 (≈ 17.6 µM) |
| Cc1noc(C)c1C(=O)Nc1ccc(C#N)cc1 | > 36.2 |
| O=S(=O)(Nc1ccc(Nc2ccccc2)cc1)c1ccc(F)cc1 | 3.5 (≈ 10.2 µM) |
| Cc1cc(C)c(S(=O)(=O)c2ccccc2Cl)c(=O)[nH]1 | 42.2 (≈ 142 µM) |
| COc1ccc(-c2nc3ccccc3c(=O)n2CC(C)C)cc1 | 38.3 (≈ 124 µM) |
| c1cncc(-c2nc(N3CCOCC3)c3c4c(sc3n2)CCC4)c1 | 1.1 (≈ 3.25 µM) |
| Cc1ccc2nc(/C(C#N)=C/c3ccccc3C(=O)O)[nH]c2c1 | > 45.5 |
| O=C(NCc1cccnc1)c1cccs1 | > 32.7 |
| Nc1ccc([As](=O)(O)O)cc1 | > 32.6 |
| CCCOc1ccc(C2Nc3cccc4cccc(c34)N2)cc1 | 3.8 (≈ 12.5 µM) |
| COc1ccc(NS(=O)(=O)c2cccc(C(=O)N3CCN(C(=O)c4ccco4)CC3)c2)cc1 | 68.1 (≈ 145 µM) |
| O=C(CN1C(=O)C2C3C=CC(C3)C2C1=O)OCC(=O)c1ccc(Cl)cc1 (centres undefined) | > 56.1 |
| C=CCn1c(O)c(C(C)=NC2CCN(Cc3ccccc3)CC2)c(=O)[nH]c1=O | 53.6 (≈ 140 µM) |

| SMILES | solubility kinetic [µg/mL] |
| --- | --- |
| COc1cc(C(=O)NC2CCCc3ccccc32)cc(OC)c1OC (centres undefined) | 5.9 (≈ 17.3 µM) |
| CCc1ccccc1NC(=O)Nc1ccsc1C(=O)OC | 16.2 (≈ 53.2 µM) |
| O=C(CN1C(=O)NC2(CCCC2)C1=O)NCCc1ccc(F)cc1 | 44.4 (≈ 133 µM) |
| Cc1ccc(NC(=O)O/N=C/c2ccc(F)cc2)cc1 | 23.1 (≈ 84.8 µM) |
| COc1ccccc1/C=C1\N=C(C(C)(C)C)OC1=O | 3 (≈ 11.6 µM) |
| CC(=O)Nc1ccc(NC(=O)Nc2ccccc2)cc1 | 6.3 (≈ 23.4 µM) |
| CCOC(=O)CNc1cccc(C(F)(F)F)c1 | 8 (≈ 32.4 µM) |
| COc1cc2c(cc1OC)C(c1cccc(Br)c1)NC(=O)C2 (centres undefined) | 43 (≈ 119 µM) |
| O=C(Nc1ccccc1)c1ccccc1OCc1ccc(F)cc1 | < 0.7 |
| CC(C)NC(=O)CSc1nccc(-c2cccs2)n1 | 38.7 (≈ 132 µM) |
| O=C(COC(=O)c1ccc(F)cc1F)Nc1ccc(Cl)cn1 | 3.9 (≈ 11.9 µM) |
| CSc1ccccc1NC(=S)NC1CCCC1 | > 40 |
| Oc1ccc(/C=N/N2CCCCC2)c(O)c1O | > 35.4 |
| CC(=O)c1ccc(OCC(=O)Nc2ccc3nc(C)sc3c2)cc1 | 1.4 (≈ 4.11 µM) |
| CC1CCC(NC(=O)c2ccc3c(c2)OCO3)CC1 (centres undefined) | 10.4 (≈ 39.8 µM) |
| Cn1c(CC(=O)NNC(=O)c2ccccc2F)nc2ccccc21 | > 48.9 |
| O=C(Nc1nnc(C2=COCCO2)o1)c1cccc(F)c1 | > 43.7 |
| O=C1NC(=O)/C(=C/c2ccccn2)S1 | > 30.9 |
| COc1ccc(CCNC(=S)c2ccccc2)cc1OC | > 45.2 |
| CCc1noc(C)c1C(=O)NCCc1ccc(Cl)cc1 | > 43.9 |
| Cc1cnc(C(=O)N2CCN(S(=O)(=O)c3ccc(F)c(F)c3F)CC2)cn1 | 55.8 (≈ 139 µM) |
| CC(=O)C1=C(C)NC(C)=C(C(C)=O)C1c1ccccc1 | 35.3 (≈ 131 µM) |
| Brc1ccc(-c2noc(-c3ccccn3)n2)o1 | 10.8 (≈ 37 µM) |
| CSc1ccc(S(=O)(=O)N2CCC(C(=O)NC3CC3)CC2)cc1 | 36 (≈ 102 µM) |

| SMILES | solubility kinetic [µg/mL] |
| --- | --- |
| Cn1c(=O)c(C(=O)c2ccc(S(C)(=O)=O)c(Cl)c2Cl)c(O)c2ccccc21 | > 63.9 |
| CCOc1ncccc1C(=O)OCC(=O)Nc1ccc(Cl)cn1 | 15 (≈ 44.7 µM) |
| Cc1c(Cl)cccc1NC(=O)CC(Cc1ccccc1)C(=O)O (centres undefined) | > 49.8 |
| CCN(Cc1ccncc1)C(=O)CCc1ccccc1 | 33.4 (≈ 124 µM) |
| COc1ccc(CCNC(=O)c2ccc([N+](=O)[O-])cc2)cc1 | 5.3 (≈ 17.6 µM) |
| O=S1(=O)C=C(SCc2ccc(F)cc2)Nc2ccccc21 | 22.5 (≈ 70 µM) |
| COc1ccc(NC(=O)COc2ccccc2Cc2ccccc2)cn1 | 12.2 (≈ 35 µM) |
| CCCSc1nsc(NC(=O)CCC)n1 | 10.8 (≈ 44 µM) |
| CC(=O)N/C(N)=N/c1nc2cc([N+](=O)[O-])ccc2o1 | 3.8 (≈ 14.4 µM) |
| CCc1ccc(S(=O)(=O)Nc2ccc(C)c(NS(C)(=O)=O)c2)cc1 | 48.6 (≈ 132 µM) |
| O=[N+]([O-])c1ccc2c(c1)nc1n2CCN(CC2CCCO2)C1 (centres undefined) | 41.1 (≈ 136 µM) |
| Cn1ccnc1SCC(=O)Nc1ccc2c(c1)OCCO2 | > 45.8 |
| O=C(CN1CCc2ccccc2C1)NCC(=O)Nc1ccc(F)cc1 | 17.1 (≈ 50.1 µM) |
| O=C(Nc1cc(Cl)cc(Cl)c1)C1CCCC1 | < 0.6 |
| Cc1noc(C)c1C(=O)NC1=NCCS1 | > 33.8 |
| CCOC(=O)C(=CNc1ccc(Oc2cncc(Cl)c2)nc1)C(=O)OCC | 5 (≈ 12.8 µM) |
| CN(c1ccc(F)cc1)S(=O)(=O)c1ccc(Cl)c(C(=O)OCC(=O)NC2CC2)c1 | 11.7 (≈ 26.5 µM) |
| CC1(C)CC(NC(=O)C(=O)NCCc2ccccc2)CC(C)(C)N1 | > 49.7 |
| O=C(OCC(=O)N1CCN(c2ccc(F)cc2)CC1)c1cnc2ccccc2n1 | 19.5 (≈ 49.4 µM) |
| CC(C)c1ccc(OCC(=O)NC2=NCCS2)cc1 | 15.8 (≈ 56.8 µM) |
| CC(=O)c1c(C)[nH]c(C(=O)NCC2CCCCC2)c1C | 23.4 (≈ 84.7 µM) |
| Cc1noc(C)c1C(=O)OC(C)C(=O)N1CCc2ccccc21 (centres undefined) | 6 (≈ 19.1 µM) |
| CC1CCN(C(=O)c2ccc(N3CCOCC3)c([N+](=O)[O-])c2)CC1 | > 50 |
| Cc1ccnc(NS(=O)(=O)c2ccccc2)c1 | 31.3 (≈ 126 µM) |

| SMILES | solubility kinetic [µg/mL] |
| --- | --- |
| CC(=O)Nc1cc2c(cc1[N+](=O)[O-])OCCO2 | > 35.7 |
| Cc1ccccc1N1CCN(Cc2ccc3c(c2)OCO3)CC1 | 21.5 (≈ 69.3 µM) |
| Cc1cccc(NC(=O)CN(CC2CCCO2)C(=O)c2cc(S(=O)(=O)N(C)C)ccc2F)c1C (centres undefined) | > 73.7 |
| Cc1cccc2nc3c(nc12)-c1ccccc1C3=O | 0.5 (≈ 2.03 µM) |
| Cc1ccc2c(c1)sc1nc(=O)n(-c3ccccc3)c(=O)n12 | 2.3 (≈ 7.43 µM) |
| O=[N+]([O-])c1ccc(COc2ncnc3ccccc23)cc1 | 27.7 (≈ 98.5 µM) |
| Cc1nc2cc(C)c(C)cc2s1 | 0.7 (≈ 3.95 µM) |
| CCOc1ccc(N=Cc2c(O)n(Cc3ccccc3)c(=S)[nH]c2=O)cc1 | 0.5 (≈ 1.31 µM) |
| Cc1ccc(-n2c3nc(=O)n(C)c(=O)c-3cc3ccccc32)cc1 | 12.3 (≈ 38.8 µM) |
| COc1ccc(/C=C/C(=O)NC(=S)N2CCOCC2)cc1 | > 46 |
| COc1ccc(Cl)cc1NC(=O)C1CC(c2ccccc2O)=NO1 (centres undefined) | 0.9 (≈ 2.6 µM) |
| N/C(=N\OC(=O)c1ccc(Br)cc1)c1cccc([N+](=O)[O-])c1 | 0.8 (≈ 2.2 µM) |
| OC1(c2ccccc2)Cc2cccc[n+]2C1c1ccccc1.[Br-] (centres undefined) | > 55.2 |
| COc1ccc(S(=O)(=O)N2CCOCC2)cc1NC(=O)COc1ccc2c(C)cc(=O)oc2c1 | 4.1 (≈ 8.39 µM) |
| CCc1c(C)nc(SCC(=O)NC2CCCC2)[nH]c1=O | > 44.3 |
| O=C(CNC(=O)c1ccccc1F)OC1CCOC1=O (centres undefined) | > 42.2 |
| Cc1ccc(NC(=O)COC(=O)c2ccc3c(c2)OCO3)c(C)c1 | < 0.7 |
| CN(C)/C=C(\C#N)S(=O)(=O)c1ccccc1 | > 35.4 |
| O=C(OCc1ccc(Br)cc1)c1cccnc1 | 40.5 (≈ 139 µM) |
| Cc1cc(C)c(OCC(=O)Nc2nc3ccccc3[nH]2)c(C)c1 | 0.3 (≈ 0.97 µM) |
| CCOC(=O)CNC(=O)C(CC(N)=O)NC(=O)OC(C)(C)C (centres undefined) (Boc-[ξN]-Gly-OEt) | > 47.6 |
| O=C(NCC1CCCO1)c1ccc2[nH]c3c(c2c1)CCCC3 (centres undefined) | > 44.8 |
| CN(c1ccccc1)S(=O)(=O)c1ccc(Cl)c(C(=O)NCc2ccco2)c1 | 47.2 (≈ 117 µM) |
